Experimental data reported in US5591709A, “Compositions and methods for treating wounds” (Life Medical Sciences, Inc., priority 1995, dated 1997).

System: 2×3 cm full-thickness skin wounds on the dorsum
Assay: Guinea pig full-thickness skin wound closure (fractional change in wound area, closure rate, peak closure day)
Format: in vivo, Hartley-derived guinea pigs
Settings: for Peak Closure Day (% Closure): % closure at the peak closure day; for Peak Closure Day: day of maximum closure rate, gel every 48 hours; for Closure % (Day) 50%: day on which 50% wound closure was reached, gel about 1 cc/cm^2 every 48 hours; for Peak closure rate (comparison in words): hormones in Agarose in saline (no medium), singly or three together; for Peak closure rate occurred later / closure rate of 50% slower: single hormone in Agarose in media; for Peak closure rate occurred later: compared to Media+3 hormones together; for closure rate of 50% slower: compared to the combination of the three hormones in media; for wound healing activity in medium relative to the same in saline: Agarose in medium vs Agarose in saline (without medium); for closure of 50% faster: single hormone in Agarose in saline (no medium), comparator not clearly stated
Procedure: Under general anaesthesia of […], four 2×3 cm full-thickness skin patches were surgically extirpated from the dorsum of Hartley-derived guinea pigs. After application of the gel (about 1 cc/cm^2) to the wounds, the wounds were dressed with Omiderm, a polyurethane-based synthetic wound dressing (Omikron, Israel) and anchored with gauze and elastic adhesive bandage. Change of the bandages and administration of the gels were performed every 48 hours, under general anaesthesia, at which time in one group, the wounds were washed with ESDC disinfectant (Symbollon Corp., Mass., USA), washed with warm saline, measured and photographed. Computerized morphometric measurements of the photographs were made and the dynamics of the regeneration process were quantified and analyzed. A more detailed description and the results of these experiments is presented herein. Hartley-derived Albino guinea pigs weighing 300-400 grams were used in this study. The animals were housed in individual cages and fed regularly guinea pig chow and water enriched with Vitamin C ad libitum. […] All histological sections were prepared using Hematoxylene and Eosin stain as well as Mason's trichrome method for collagen. Each animal was anesthetized and four bilaterally symmetrical full-thickness skin segments measuring 2×3 cm were excised from the dorsum of each animal, two from the scapular region and two from the lumbar region. After washing the wounds with warm saline, the wounds were dressed with the gel at a concentration of about 1 cc/cm^2, covered with a polyurethane based synthetic membrane Omiderm (Omikron, Israel) and anchored with gauze, elastic adhesive and a […]., Italy). The dressings were changed every 48 hours under general anaesthesia, at which time the wounds were washed with warm saline to remove any debris and the remaining gel within the wound, measured, photographed and fresh gel was applied and the wounds dressed as described above. In one experiment, a disinfectant compress of ESDC (Symbollon, Corp.) was applied during the change of dressing for about ten minutes, preceded and followed by warm saline rinse. At days 4, 6, 8, 10 and 12, the animals were sacrificed and the wounds with the surrounding tissues were extirpated and prepared for histological examination. The thickness of the newly formed epithelial layer and of the underlying granulation tissue were measured using light microscopy (Zeiss) at 100×magnification. The wound macrophotographs were analyzed using ImageMeasure (Phoenix Corp., Seattle, Wash.) computerized morphometric program and the experimental results were plotted as graphs showing the fractional change in area (i.e. closure rate) of the wounds treated with gel-media+hormones versus the various controls. The wound closure rate was tabulated and peak closure day (% closure) was determined. Peak closure rate has been used as a measure of wound healing potency. Peak closure rate is the maximum slope of the [formula] vs. time curve. Peak closure rate indicates the time after the start of the treatment at which tissue healing or growth rate reaches a maximum value (maximum rate); i.e., when the treatment is optimal.

For “Growth Hormone: human growth hormone at 2 ng/ml in Agarose gel, in saline or in medium”, the “Peak Closure Day (% Closure)” value was 50%, the “Peak Closure Day” value was 6.0 days and the “Closure % (Day) 50%” value was 6.0 days. For the same compound, the “Peak closure rate (comparison in words)” value was “the same”, the “Peak closure rate occurred later” value was 33% and the “closure rate of 50% slower” value was 75%.

For “Triiodothyronine/thyroxine [reference compound]”, the “Peak Closure Day (% Closure)” value was 30%, the “wound healing activity in medium relative to the same in saline” value was “substantially enhanced wound healing activity” and the “Peak Closure Day” value was 3.0 days. For the same compound, the “Closure % (Day) 50%” value was 5.0 days, the “Peak closure rate (comparison in words)” value was “the same” and the “Peak closure rate occurred later” value was 33%. The “closure rate of 50% slower” value was 75% and the “closure of 50% faster” value was 15%.

In the case of `N[C@@H](Cc1cc(I)c(Oc2cc(I)c(O)c(I)c2)c(I)c1)C(=O)O` [thyroxine, reference compound], the “concentration level relative to triiodothyronine giving the same effect” value (relative to triiodothyronine) is reported as 3-5 times.

Insulin was tested, and the “Peak Closure Day (% Closure)” value was 30%, the “wound healing activity in medium relative to the same in saline” value was “substantially enhanced wound healing activity” and the “wound healing, medium plus insulin vs medium plus IGF” value (Agarose in medium, IGF at 8 ng/ml, through day 9) was “substantially better”. The “Peak Closure Day” value was 3.0 days, the “Closure % (Day) 50%” value was 5.0 days and the “Peak closure rate (comparison in words)” value was “the same”. For the same compound, the “Peak closure rate occurred later” value was 33%, the “closure rate of 50% slower” value was 75% and the “closure of 50% faster” value was 15%.
